# Experimental data from patent publication US20240252668A1, “ANTIBODY DRUG CONJUGATES AND METHODS FOR MAKING THEREOF” (Novartis AG, priority 2021, published 2024).
# Where two headings read alike, the source gives them in different places. Starred links: 1 amine or outer side, 2 acyl side, 3 side chain; linkers in the order of their positions; H or OH if unused. Positions of bridges follow the written chain, without caps; N, C: chain ends. Non-standard residues stand in square brackets, D forms with d. Residues, ends and D or L forms follow the SMILES beside them. ξ: configuration not given here. *: point of attachment. Leu(3R-O(AcLeu(3R-OH))) = CC(=O)N[C@H](C(=O)O[C@H](C(C)C)[C@H](N)C(=O)O)[C@H](O)C(C)C; Leu(3R-OH,Nα-propionyl) = CCC(=O)N[C@H](C(=O)*)[C@H](O)C(C)C; X1 = CC(C)[C@@H](O[*:3])[C@H](N[*:1])C(=O)[*:2]; X5 = CSC[C@@H](O[*:3])[C@H](N[*:1])C(=O)[*:2]; X3 = CC(C)C(O[*:3])C(N[*:1])C(=O)[*:2]; ξLeu(3ξ-OH) = CC(C)C(O)C(N)C(=O)O; NMeT = CN[CH](C(=O)O)[CH](C)O; dPhLac = O=C(O)[C@H](O)Cc1ccccc1; PhLac = O=C(O)[CH](O)Cc1ccccc1; NMeA = CN[CH](C)C(=O)O; NMeDha = C=C(NC)C(=O)O
# Assays:
# [1] = tested on: 92.1 and MP41 cell lines (GNAQ/GNA11 mutant uveal melanoma); assay: Cell proliferation assays, potency ranking over both uveal melanoma lines; assay type: cell-based; details: 92.1 and MP41 cell lines
# Description: The selective antiproliferative profile of the chromodepsins against GNAQ/GNA11 mutant cell lines is confirmed by the lack of activity against the A375 and SK MEL 30 cell lines that are independent from GNAQ/GNA11 signaling. The potency ranking using the 92.1 and MP41 cell lines is in good agreement with the previously SAR studies. […] These findings are in line with a recent report from Voss et al., highlighting the importance of the “lipophilic anchors” of compound (A1) at the residues varied in compounds 2 and 3, in context of binding kinetics and prolonged residence time on the target proteins. The retained potency of compound 4 indicates a promising exit vector for potential synthetic or biosynthetic modifications of the scaffold. […] The linearized depsipeptides compounds 5-7 lack any antiproliferative activity. In this experimental setup, the cellular permeability of the compounds was a crucial factor contributing to the observed antiproliferative potency. Therefore, all compounds were characterized in a low efflux MCDK assay and determined their exposed polar surface areas (EPSA) in order to assess their passive cellular permeabilities. All macrocyclic chromodepsins that feature the N acyl Hle side chain show similar results concerning their % fraction absorbed (% FA; average ˜60% FA+20%) and EPSA values.
# (§1) Cell Proliferation Assays with Chromodepsins (compounds (A1) and 2-15): Cell line descriptions: 92.1—uveal melanoma cell line, derived from primary tumor, harboring heterozygous GNAQ Q209L mutation. Purchased from Sigma Aldrich. MP41 (CRL-3297) -uveal melanoma cell line, derived from primary tumor, harboring heterozygous GNA11 Q209L mutation. Purchased from ATCC. A375—skin melanoma cell line, harboring homozygous BRAF V600E mutation. Origin: Cancer Cell Line Encyclopedia (CCLE). SK-MEL-30—skin melanoma cell line, harboring heterozygous NRAS Q61K mutation. Origin: CCLE.
# (§2) Cells were cultured in 96-well plates in a total volume of 100 μL at 37° C., 5% CO2 and 95% relative humidity. All cell lines were cultured in RPMI Medium (RPMI 1640 w/o L-glutamine, Bioconcept ref. 1-41F01-I) except A375, DMEM medium (DMEM high glucose (4.5 g/L), Bioconcept, ref. 1-26F01-I), and supplemented with 10% FCS (Bioconcept, ref. 2-01F30-I). Two to three thousand cells were seeded in 96-well plates per well the night before they were treated with compounds (concentration range: from 260 nM to 0.036 nM with ⅓ dilution steps; for 7 the concentration range was increased from 10000 nM to 1.52 nM with ⅓ dilution steps). Cell viability was measured by addition of 10 ul of resazurin per well after 96 hours of treatment. Results were analyzed and plotted using GraphPad Prism 9.0.1.
# [2] = tested on: A375 skin melanoma cell line (homozygous BRAF V600E); assay: Cell proliferation assay (resazurin cell viability), A375 cell line; assay type: cell-based
# Description: as §1, §2
# MDCK-LE monolayers = assay: Cell-based transwell assay with MDCK-low efflux monolayers (passive permeability); assay type: in vitro ADME; details: for % Fraction absorbed / % Recovery / Papp A − B: MDCK-LE monolayers
# Experimental: Cell-based transwell assays with MDCK-low efflux monolayers: Compounds (A1) and 2-15 were tested in MDCK cell sub-clones with low effluxt ransporter activity (MDCK-LE) in order to determine their passive permeability. The incubations were performed at a contract research organization as described previously.
# [3] = tested on: SK-MEL-30 skin melanoma cell line (heterozygous NRAS Q61K); assay: Cell proliferation assay (resazurin cell viability), SK-MEL-30 cell line; assay type: cell-based
# Description: as §1, §2
# Gαq proteins = details: as has been reported; dynamic mass redistribution; cited from earlier work
# [4] = tested on: 92.1 uveal melanoma cell line (heterozygous GNAQ Q209L); assay: Cell proliferation assay (resazurin cell viability), 92.1 cell line; assay type: cell-based
# Description: as §1, §2
# [5] = EPSA determination by supercritical fluid chromatography; assay type: physicochemical; details: for EPSA: modified EPSA method, SFC
# Experimental: […] by supercritical fluid chromatography: Compounds (A1) and 2-15 were tested by supercritical fluid chromatography (SFC) to determine their ESAPSA values. Samples were analyzed using a Chirex 3014 column ([…], 3×100 mm column, 100 Å pore size; Phenomenex. The starting conditions were 5% methanol containing 20 mM ammonium formate and 95% scCO2. The gradient was increased linearly to 60% methanol containing 20 mM ammonium formate in 4.5 min.
# [6] = tested on: MP41 uveal melanoma cell line (heterozygous GNA11 Q209L); assay: Cell proliferation assay (resazurin cell viability), MP41 cell line; assay type: cell-based
# Description: as §1, §2
# [7] = A375 (GNAQ/11 wild type), 96 hours of treatment, read-out: GI50 by cell line, A375
# [8] = A375 cell line, average of Rep. 1 and 2, read-out: GI50 A375 Average
# [9] = A375 cell line, replicate 1, read-out: GI50 A375 Rep. 1
# [10] = A375 cell line, replicate 2, read-out: GI50 A375 Rep. 2
# [11] = versus macrocyclic chromodepsins with N-acyl-Hle side chain
# [12] = SK-MEL-30 (GNAQ/11 wild type), 96 hours of treatment, read-out: GI50 by cell line, SK-MEL-30
# [13] = SK-MEL-30 cell line, average of Rep. 1 and 2, read-out: GI50 SK-MEL-30 Average
# [14] = SK-MEL-30 cell line, replicate 1, read-out: GI50 SK-MEL-30 Rep. 1
# [15] = SK-MEL-30 cell line, replicate 2, read-out: GI50 SK-MEL-30 Rep. 2
# [16] = 92.1 (GNAQ Q209L), 96 hours of treatment, read-out: GI50 by cell line, 92.1
# [17] = 92.1 cell line, average of Rep. 1 and 2, read-out: GI50 92.1 Average
# [18] = 92.1 cell line, replicate 1, read-out: GI50 92.1 Rep. 1
# [19] = 92.1 cell line, replicate 2, read-out: GI50 92.1 Rep. 2
# [20] = MP41 (GNA11 Q209L), 96 hours of treatment, read-out: GI50 by cell line, MP41
# [21] = MP41 cell line, average of Rep. 1 and 2, read-out: GI50 MP41 Average
# [22] = MP41 cell line, replicate 1, read-out: GI50 MP41 Rep. 1
# [23] = MP41 cell line, replicate 2, read-out: GI50 MP41 Rep. 2
Compound,loss of potency compared to compound (A1) (growth inhibition) [1],"GI50 [2, 7] [µM]","GI50 [2, 8] [µM]","GI50 [2, 9] [µM]","GI50 [2, 10] [µM]",% Fraction absorbed (MDCK-LE monolayers) [%],% Recovery (MDCK-LE monolayers) [%],Papp A − B (MDCK-LE monolayers) [nm/s],"GI50 [3, 12] [µM]","GI50 [3, 13] [µM]","GI50 [3, 14] [µM]","GI50 [3, 15] [µM]","GI50 [4, 16] [µM]","GI50 [4, 17] [µM]","GI50 [4, 18] [µM]","GI50 [4, 19] [µM]",EPSA [5] [A^2],"GI50 [6, 20] [µM]","GI50 [6, 21] [µM]","GI50 [6, 22] [µM]",further results
C=C1C(=O)NC(C)C(=O)N(C)C(C)C(=O)NC(C(O)C(C)C)C(=O)N(C)C(C(C)OC)C(=O)OC(C(C)C)C(NC(C)=O)C(=O)OC(Cc2ccccc2)C(=O)N1C (stereo not drawn) [Compound 12] (Ac-[X3][PhLac][NMeDha]A[NMeA][ξLeu(3ξ-OH)][NMeT](Me); ester 1-C; configuration not given here),> 3.000 fold,> 10,> 10,> 10,> 10,9.9,83,5.5,> 10,> 10,> 10,> 10,1.74,1.74,1.13,2.35,106,1.18,1.18,0.994,"reduction in % FA (MDCK-LE monolayers; [11]): ~5 fold; fold change compared to compound (A1), inhibition of Gαq proteins (Gαq proteins): 16 fold; change in EPSA (in words) [5, 11]: slight changes; GI50 [6, 23]: 1.35 µM"
C=C1C(=O)N[C@@H](C)C(=O)N(C)[C@@H](C)C(=O)N[C@@H]([C@H](OC(=O)[C@@H](NC(C)=O)[C@H](O)C(C)C)C(C)C)C(=O)N(C)[C@@H]([C@@H](C)OC)C(=O)O[C@H](C(C)C)[C@H](NC(C)=O)C(=O)O[C@H](Cc2ccccc2)C(=O)N1C [Compound 8] (Ac-[X1][dPhLac][NMeDha]A[NMeA][Leu(3R-O(AcLeu(3R-OH)))][NMeT](Me); ester 1-C),two to three,> 0.26,> 0.26,> 0.26,> 0.26,70.4,78,58.4,> 0.26,> 0.26,> 0.26,> 0.26,0.001,0.001,0.00082,0.00124,94,0.0004,0.0004,0.00033,"GI50 [6, 23]: 0.00046 µM"
"C=C1C(=O)N[C@@H](C)C(=O)N(C)[C@@H](C)C(=O)N[C@@H]([C@H](OC(=O)[C@@H](NC(=O)CC)[C@H](O)C(C)C)C(C)C)C(=O)N(C)[C@@H]([C@@H](C)OC)C(=O)O[C@H](CSC)[C@H](NC(C)=O)C(=O)O[C@H](Cc2ccccc2)C(=O)N1C [Compound 2] (Ac-[X5][dPhLac][NMeDha]A[NMeA][X1](Leu(3R-OH,Nα-propionyl))[NMeT](Me); ester 1-C)",~15 fold,> 0.26,> 0.26,> 0.26,> 0.26,72.6,72,63.5,> 0.26,> 0.26,> 0.26,> 0.26,0.0098,0.0098,0.008,0.0116,104,0.0037,0.0037,0.00317,"GI50 [6, 23]: 0.0043 µM"
